The values below come from US4621101A, “Pharmaceutical compositions with antianginal activity” (Egis Gyogyszergyar, priority 1984, dated 1986).

A short description of data set [1]: Antianginal effect in rats after intravenous administration, method of Nieschulz, Popendiker and Hofmann. Format: in vivo. As to conditions: Rattus norvegicus.
A short description of data set [2]: Acute intravenous toxicity (LD50) and therapeutic index, Table II. The note with it: in vivo; for selectivity ratio: from LD50 and ED50, iv.; for LD50: iv.

Like-named read-outs stand apart in the source and are kept apart here.

For `CC(Cc1ccccc1)NCCC(c1ccccc1)c1ccccc1` (stereo not drawn) [Prenylamine, N-3,3-di-phenylpropyl-1-methylphenyl-ethylamine, reference compound], it took a dose of 6.5 mg/kg to reach the 50% effect level in data set [1] (ED50). In addition, in data set [2], the selectivity ratio turned out to be 1.77 and the median lethal dose (LD50) (in general, the dose expected to kill half of the subjects tested) is 11.5 mg/kg.

With `CC(C)N(CCCO/N=C1\CCCC\C1=C/c1ccccc1)C(C)C` [compound G, 2-[(E)-phenylmethylene]-1-[(E)-(3-diisopropylaminopropyloxyimino)]-cyclohexane], in data set [1] (read-out: ED50), the 50% effective dose (ED50) (as a rule, the dose that gives a 50% effect, or the effect in half of the subjects) is 0.38 mg/kg. For the same compound, in data set [2], the selectivity ratio was 32.9 and the median lethal dose (LD50) is 12.5 mg/kg.

Turning to `CC(C)N(CCCO/N=C1\CCCC\C1=C/c1ccc(Cl)cc1)C(C)C` [compound F, 2-[(E)-(4-chlorophenyl)-methylene]-1-[(E)-(3-diisopropylamino)-propyloxyimino]-cyclohexane], in data set [1] (read-out: ED50), the ED50 was determined as 0.35 mg/kg. In data set [2], the selectivity ratio was determined as 120 and the 50% lethal dose (LD50) came out at 42 mg/kg.

For the compound `CN(C)CCO/N=C1\CCCCCC1Cc1ccccc1` (stereo not drawn) [compound D, 2-benzyl-1-[(E)-(2-dimethylamino-ethoxyimino)]-cycloheptane], the median effective dose (ED50) in data set [1] (read-out: ED50) came to 0.52 mg/kg. In addition, in data set [2], the selectivity ratio was found to be 76.9 and the LD50 was 40 mg/kg.
